Measured values as given in ChEMBL document CHEMBL5726504, “Substituted cyclopentanes, tetrahydrofuranes and pyrrolidines as orexin receptor antagonists” (2017).
pIC50: −log10 of the molar value.

Biological target: T1, Orexin/Hypocretin receptor type 1 (Homo sapiens, UniProt O43613)
T1 sequence (O43613 whole entry): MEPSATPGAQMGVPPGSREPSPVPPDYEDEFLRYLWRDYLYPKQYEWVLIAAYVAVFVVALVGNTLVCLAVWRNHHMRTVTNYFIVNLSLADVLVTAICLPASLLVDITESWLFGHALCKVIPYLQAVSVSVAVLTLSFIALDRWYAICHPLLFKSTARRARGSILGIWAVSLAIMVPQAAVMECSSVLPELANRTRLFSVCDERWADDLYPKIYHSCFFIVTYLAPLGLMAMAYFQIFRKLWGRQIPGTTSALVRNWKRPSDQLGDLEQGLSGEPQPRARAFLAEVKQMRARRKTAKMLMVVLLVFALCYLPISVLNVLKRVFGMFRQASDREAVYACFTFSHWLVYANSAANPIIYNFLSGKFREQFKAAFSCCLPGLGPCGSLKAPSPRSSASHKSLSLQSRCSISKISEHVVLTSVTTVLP
Test: FLIPR Assay: Orexin antagonist activity was determined by measuring changes in intracellular calcium levels using a Ca2+ sensitive fluorescent dye. The changes in fluorescent signal were monitored by Fluorescent Imaging Plate Reader (FLIPR) technology available from Molecular Devices, LLC, U.S.A. Orexin mediated increases in intracellular Ca2+ concentration were readily detected upon activation with orexin-A. Twenty-four hours prior to the assay, RBL-2H3 cells stably expressing either human orexin receptor 1 or human orexin receptor 2 were seeded in cell culture medium in black, clear-bottom 384-well plates (commercially available from Corning Inc., U.S.A.) and grown overnight at 37° C., 5% CO2. On the day of the assay, cell culture media was removed and cells were loaded with Calcium 5 Dye (commercially sold by Molecular Devices, LLC, U.S.A.) for 1 hour at 37° C., 5% CO2. Test compounds (at 10 point half log concentration response curves from 10 uM) were added to cells for 15 minutes prior to the addition of orexin-A to all wells, to achieve a final concentration that produces approximately an 80% maximal response.
Type: cell-based

COc1ccc(Br)nc1C(=O)N[C@H]1CCC[C@@H]1Nc1nc2ccc(F)cc2s1
pIC50: 6.89
